Results from the SangsterLogP compilation.

Assay: method code SF-AS, from DOI: 10.1016/0223-5234(89)90056-1
Conditions: pH 7.4

A logD of -0.19 was found for `O=C(Cn1cc([N+](=O)[O-])c2cccnc21)NCCO` in this work.
A logD of 1.95 was found for `O=[N+]([O-])c1cn(CCBr)c2ncccc12` in this work.
A logD of -0.23 was found for `O=[N+]([O-])c1c[nH]c2nccnc12` in this work.
A logD of -0.12 was found for `CCOC(=O)Cn1cccc2c([N+](=O)[O-])cnc1-2` in this work.
A logD of -0.52 was found for `O=C(Cn1cccc2c([N+](=O)[O-])cnc1-2)NCCCN1CCOCC1` in this work.
A logD of 0.49 was found for `Cn1cc([N+](=O)[O-])c2cccnc21` in this work.
A logD of 0.57 was found for `CCOC(=O)Cn1cc([N+](=O)[O-])c2cccnc21` in this work.
A logD of -0.15 was found for `O=C(Cn1cc([N+](=O)[O-])c2cccnc21)NCCCN1CCOCC1` in this work.
A logD of -0.28 was found for `O=[N+]([O-])c1cn(CC(O)CO)c2ncccc12` (stereo not given) in this work.
A logD of -0.09 was found for `COc1nc2c(c(=O)n(C)c(=O)n2C)n1C` in this work.
